One compound from BindingDB's records for doi:10.1021/jm00067a022 (Syntex Discovery Research, 1993) can be followed below.

This assay in a line: Inhibition of lanosterol 14-alpha-demethylase in hamster hepatic microsomes.

A word on the Ki: it is a measure of affinity in units of concentration, obtained from inhibition or displacement. Low values mean tighter binding, high ones weaker binding. In turn, `CC(=O)N1CCN(c2ccc(OC[C@@H]3CO[C@@](Cn4ccnc4)(c4ccc(Cl)cc4Cl)O3)cc2)CC1` [Nizoral] had an inhibition constant (Ki) of 25 nM.
